Source: US4147861A, “1N-(α-Hydroxy-ω-aminoalkanoyl)- 6'N-methyl-3',4'-dideoxykanamycin B and the production thereof” (Zaidan Hojin Biseibutsu Kagaku Kenkyu Kai, priority 1977, dated 1979)
≈ marks a conversion by molar mass, not a printed value. Like-named read-outs stand apart in the source and are kept apart here.

Tests used:
Staphylococcus aureus = assay: Minimum inhibitory concentration, serial dilution method on nutrient agar; type: cell-based; details: 37° C., 18 hours, read-out: Minimum Inhibitory Concentrations
[1] = tested on: Staphylococcus aureus FDA 209P; assay: as above; type: cell-based; details: FDA209P, 37° C., 18 hours, read-out: Minimum Inhibitory Concentrations
[2] = tested on: Staphylococcus aureus Terajima; assay: as above; type: cell-based; details: 37° C., 18 hours, read-out: Minimum Inhibitory Concentrations
Sarcina lutea PCI 1001 = assay: as above; type: cell-based; details: Micrococcus luteus, PCI1001, 18 h, read-out: Minimum Inhibitory Concentrations
Bacillus anthracis = assay: microbe, parasite or virus in culture; type: cell-based; details: 18 h, read-out: Minimum Inhibitory Concentrations
[3] = tested on: Bacillus subtilis PCI 219; assay: Minimum inhibitory concentration, serial dilution method on nutrient agar; type: cell-based; details: PCI219, 37° C., 18 hours, read-out: Minimum Inhibitory Concentrations
[4] = tested on: Bacillus subtilis NRRL B-558; assay: as above; type: cell-based; details: NRRLB558, 37° C., 18 hours, read-out: Minimum Inhibitory Concentrations
[5] = tested on: Bacillus cereus ATCC 10702; assay: as above; type: cell-based; details: read-out: Minimum Inhibitory Concentrations
[6] = tested on: Corynebacterium bovis 1810; assay: as above; type: cell-based; details: Corynebacterium bovis 1810; 37° C., 18 hours; read-out: Minimum Inhibitory Concentrations
[7] = tested on: Mycobacterium smegmatis ATCC 607; assay: as above; type: cell-based; details: Mycolicibacterium smegmatis, ATCC607, 37° C., 18 hours, read-out: Minimum Inhibitory Concentrations
[8] = tested on: Shigella dysenteriae JS 11910; assay: as above; type: cell-based; details: JS11910, 18 h, read-out: Minimum Inhibitory Concentrations
Salmonella typhosa T-63 = assay: as above; type: cell-based; details: Salmonella enterica, 18 h, read-out: Minimum Inhibitory Concentrations
[9] = tested on: Salmonella enteritidis 1891; assay: as above; type: cell-based; details: Salmonella enterica; Salmonella enteritidis 1891; 37° C., 18 hours; read-out: Minimum Inhibitory Concentrations
Proteus vulgaris OX 19 = assay: as above; type: cell-based; details: OX19; Proteus vulgaris OX 19; 37° C., 18 hours; read-out: Minimum Inhibitory Concentrations
[10] = tested on: Klebsiella pneumoniae PCT 602; assay: as above; type: cell-based; details: PCT602; Klebsiella pneumoniae PCT 602; 37° C., 18 hours; read-out: Minimum Inhibitory Concentrations
Escherichia coli NIHJ = assay: as above; type: cell-based; details: read-out: Minimum Inhibitory Concentrations
Escherichia coli K-12 = assay: as above; type: cell-based; details: K12; Escherichia coli K-12; 37° C., 18 hours; read-out: Minimum Inhibitory Concentrations
Escherichia coli K-12 R5 = assay: as above; type: cell-based; details: K12R5, 18 h, read-out: Minimum Inhibitory Concentrations
[11] = tested on: Escherichia coli K-12 ML 1629; assay: as above; type: cell-based; details: read-out: Minimum Inhibitory Concentrations
[12] = tested on: Escherichia coli K-12 ML 1410; assay: as above; type: cell-based; details: read-out: Minimum Inhibitory Concentrations
[13] = tested on: Escherichia coli K-12 ML 1410 R81; assay: as above; type: cell-based; details: 18 h, read-out: Minimum Inhibitory Concentrations
[14] = tested on: Escherichia coli LA290 R55; assay: as above; type: cell-based; details: LA290R55, 18 h, read-out: Minimum Inhibitory Concentrations
[15] = tested on: Escherichia coli LA290 R56; assay: as above; type: cell-based; details: LA290R56, 18 h, read-out: Minimum Inhibitory Concentrations
[16] = tested on: Escherichia coli LA290 R64; assay: as above; type: cell-based; details: LA290R64, 18 h, read-out: Minimum Inhibitory Concentrations
Escherichia coli W677 = assay: as above; type: cell-based; details: Escherichia coli W677; 37° C., 18 hours; read-out: Minimum Inhibitory Concentrations
[17] = tested on: Escherichia coli JR66/W677; assay: as above; type: cell-based; details: Escherichia coli, JR66/W677, 18 h, read-out: Minimum Inhibitory Concentrations
[18] = tested on: Escherichia coli K-12 ML 1630; assay: as above; type: cell-based; details: K12ML1630, 37° C., 18 hours, read-out: Minimum Inhibitory Concentrations
Experimental: (§1) The minimum inhibitory concentrations (mcg./ml.) of 1N-(DL-isoseryl)-6'N-methyl-3',4'-dideoxykanamycin B (abbreviated as DL-IS-MDKB); 1N-(L-isoseryl)-6'N-methyl-3',4'-dideoxykanamycin B (abbreviated as L-IS-MDKB); 1N-(L-4-amino-[…])-6'N-methyl-3',4'-dideoxykanamycin B (abbreviated as AHB-MDKB); and 1N-(L-5-amino-2-hydroxyvaleryl)-6'N-methyl-3',4'-dideoxykanamycin B (abbreviated as AHV-MDBK) against various organisms were determined according to serial dilution method using nutrient agar medium at 37° C., the readings being made after 18 hours incubation. For the comparison purpose, the minimum inhibitory concentrations (mcg./ml.) of 1 N-(L-4-amino-2-hydroxybutyryl)-kanamycin A (abbreviated as AHB-KMA) and 1N-([…])-kanamycin B (abbreviated as AHB-KMB) which are known from U.S. Pat. No. 3,781,268 were also determined by the same manner as stated above.

[19] = tested on: Klebsiella pneumoniae 22 No. 3038; assay: as above; type: cell-based; details: 37° C., 18 hours, read-out: Minimum Inhibitory Concentrations
Experimental: as §1

[20] = tested on: Pseudomonas aeruginosa A3; assay: as above; type: cell-based; details: 37° C., 18 hours, read-out: Minimum Inhibitory Concentrations
Experimental: as §1

[21] = tested on: Shigella flexneri 4b JS 11811; assay: as above; type: cell-based; details: 4BJS11811, 37° C., 18 hours, read-out: Minimum Inhibitory Concentrations
Experimental: as §1

Shigella sonnei JS 11746 = assay: as above; type: cell-based; details: JS11746, 37° C., 18 hours, read-out: Minimum Inhibitory Concentrations
Experimental: as §1

[22] = tested on: Pseudomonas aeruginosa No. 12; assay: as above; type: cell-based; details: read-out: Minimum Inhibitory Concentrations
[23] = tested on: Pseudomonas aeruginosa TI-13; assay: as above; type: cell-based; details: Pseudomonas aeruginosa, TI13, 18 h, read-out: Minimum Inhibitory Concentrations
[24] = tested on: Pseudomonas aeruginosa GN315; assay: as above; type: cell-based; details: Pseudomonas aeruginosa GN315; 37° C., 18 hours; read-out: Minimum Inhibitory Concentrations
[25] = tested on: Pseudomonas aeruginosa 99; assay: as above; type: cell-based; details: 37° C., 18 hours, read-out: Minimum Inhibitory Concentrations
[26] = tested on: kanamycin-resistant bacteria; details: prior art statement; cited from earlier work

Row | Structure (SMILES) | MIC (Staphylococcus aureus) | MIC [1] | MIC [2] | MIC (Sarcina lutea PCI 1001) | MIC (Bacillus anthracis) | MIC [3] | MIC [4] | MIC [6] | MIC [7] | MIC [8] | MIC (Salmonella typhosa T-63) | MIC [9] | MIC (Proteus vulgaris OX 19) | MIC [10] | MIC (Escherichia coli K-12) | MIC (Escherichia coli K-12 R5) | MIC [13] | MIC [14] | MIC [15] | MIC [16] | also measured
1 | NCC[C@H](O)C(=O)N[C@@H]1C[C@H](N)[C@@H](O[C@H]2O[C@H](CN)[C@@H](O)[C@H](O)[C@H]2O)[C@H](O)[C@H]1O[C@H]1O[C@H](CO)[C@@H](O)[C@H](N)[C@H]1O [AHB-KMA, 1 N-(L-4-amino-2-hydroxybutyryl)-kanamycin A, reference compound] | < 0.2 µg/mL | 0.39 µg/mL (≈ 0.666 µM) | < 0.2 µg/mL | 3.13 µg/mL (≈ 5.34 µM) | < 0.2 µg/mL | < 0.2 µg/mL | < 0.2 µg/mL | 0.78 µg/mL (≈ 1.33 µM) | < 0.2 µg/mL | 3.13 µg/mL (≈ 5.34 µM) | 0.39 µg/mL (≈ 0.666 µM) | 0.78 µg/mL (≈ 1.33 µM) | 0.78 µg/mL (≈ 1.33 µM) | 0.39 µg/mL (≈ 0.666 µM) | 0.78 µg/mL (≈ 1.33 µM) | 0.39 µg/mL (≈ 0.666 µM) | 1.56 µg/mL (≈ 2.66 µM) | 0.78 µg/mL (≈ 1.33 µM) | 0.39 µg/mL (≈ 0.666 µM) | 0.39 µg/mL (≈ 0.666 µM) | MIC ([5]; ATCC10702, Bacillus cereus ATCC 10702, 37° C., 18 hours): 0.78 µg/mL (≈ 1.33 µM); MIC (Escherichia coli NIHJ; Escherichia coli NIHJ, 37° C., 18 hours): 0.78 µg/mL (≈ 1.33 µM); MIC ([11]; K12ML1629, Escherichia coli K-12 ML 1629, 37° C., 18 hours): 0.78 µg/mL (≈ 1.33 µM); MIC ([12]; K12ML1410, Escherichia coli K-12 ML 1410, 37° C., 18 hours): 0.78 µg/mL (≈ 1.33 µM); MIC (Escherichia coli W677): < 0.2 µg/mL; MIC [17]: 1.56 µg/mL (≈ 2.66 µM); MIC [18]: 0.78 µg/mL (≈ 1.33 µM); MIC [19]: 1.56 µg/mL (≈ 2.66 µM); MIC [20]: 3.13 µg/mL (≈ 5.34 µM); MIC [21]: 3.13 µg/mL (≈ 5.34 µM); MIC (Shigella sonnei JS 11746): 1.56 µg/mL (≈ 2.66 µM); MIC ([22]; Pseudomonas aeruginosa, NO.12, 18 h): 3.13 µg/mL (≈ 5.34 µM); MIC [23]: 3.13 µg/mL (≈ 5.34 µM); MIC [24]: 100 µg/mL (≈ 171 µM); MIC [25]: 6.25 µg/mL (≈ 10.7 µM); activity against kanamycin-resistant bacteria [26]: active against a large number of kanamycin-resistant bacteria
2 | CNC[C@@H]1CC[C@@H](N)[C@@H](O[C@H]2[C@H](O)[C@@H](O[C@H]3O[C@H](CO)[C@@H](O)[C@H](N)[C@H]3O)[C@H](NC(=O)[C@@H](O)CN)C[C@@H]2N)O1 [L-IS-MDKB, 1N-(L-isoseryl)-6'N-methyl-3',4'-dideoxykanamycin B] | < 0.2 µg/mL | < 0.2 µg/mL | < 0.2 µg/mL | 3.13 µg/mL (≈ 5.66 µM) | < 0.2 µg/mL | < 0.2 µg/mL | < 0.2 µg/mL | 0.78 µg/mL (≈ 1.41 µM) | 0.39 µg/mL (≈ 0.706 µM) | 3.13 µg/mL (≈ 5.66 µM) | 0.39 µg/mL (≈ 0.706 µM) | 0.78 µg/mL (≈ 1.41 µM) | 0.78 µg/mL (≈ 1.41 µM) | 0.78 µg/mL (≈ 1.41 µM) | 0.78 µg/mL (≈ 1.41 µM) | 1.56 µg/mL (≈ 2.82 µM) | 1.56 µg/mL (≈ 2.82 µM) | 1.56 µg/mL (≈ 2.82 µM) | 0.78 µg/mL (≈ 1.41 µM) | 0.39 µg/mL (≈ 0.706 µM) | MIC ([5]; Bacillus cereus, ATCC10702, 18 h): 1.56 µg/mL (≈ 2.82 µM); MIC (Escherichia coli NIHJ; Escherichia coli, 18 h): 1.56 µg/mL (≈ 2.82 µM); MIC ([11]; Escherichia coli, K12ML1629, 18 h): 1.56 µg/mL (≈ 2.82 µM); MIC ([12]; Escherichia coli, K12ML1410, 18 h): 1.56 µg/mL (≈ 2.82 µM); MIC (Escherichia coli W677): 0.78 µg/mL (≈ 1.41 µM); MIC [17]: 1.56 µg/mL (≈ 2.82 µM); MIC [18]: 1.56 µg/mL (≈ 2.82 µM); MIC [19]: 1.56 µg/mL (≈ 2.82 µM); MIC [20]: 3.13 µg/mL (≈ 5.66 µM); MIC [21]: 1.56 µg/mL (≈ 2.82 µM); MIC (Shigella sonnei JS 11746): 3.13 µg/mL (≈ 5.66 µM); MIC ([22]; Pseudomonas aeruginosa No. 12, 37° C., 18 hours): 25 µg/mL (≈ 45.2 µM); MIC [23]: 6.25 µg/mL (≈ 11.3 µM); MIC [24]: 25 µg/mL (≈ 45.2 µM); MIC [25]: 25 µg/mL (≈ 45.2 µM)
